Data reported in ChEMBL document CHEMBL1136136, “Formylchromone derivatives as a novel class of protein tyrosine phosphatase 1B inhibitors” (Bioorg Med Chem Lett, 2003).

Key:
[1] = molecular target: T1, Tyrosine-protein phosphatase non-receptor type 1 (Homo sapiens, UniProt P18031); assay: Inhibition of human Protein-tyrosine phosphatase 1B
T1 sequence (P18031 whole entry): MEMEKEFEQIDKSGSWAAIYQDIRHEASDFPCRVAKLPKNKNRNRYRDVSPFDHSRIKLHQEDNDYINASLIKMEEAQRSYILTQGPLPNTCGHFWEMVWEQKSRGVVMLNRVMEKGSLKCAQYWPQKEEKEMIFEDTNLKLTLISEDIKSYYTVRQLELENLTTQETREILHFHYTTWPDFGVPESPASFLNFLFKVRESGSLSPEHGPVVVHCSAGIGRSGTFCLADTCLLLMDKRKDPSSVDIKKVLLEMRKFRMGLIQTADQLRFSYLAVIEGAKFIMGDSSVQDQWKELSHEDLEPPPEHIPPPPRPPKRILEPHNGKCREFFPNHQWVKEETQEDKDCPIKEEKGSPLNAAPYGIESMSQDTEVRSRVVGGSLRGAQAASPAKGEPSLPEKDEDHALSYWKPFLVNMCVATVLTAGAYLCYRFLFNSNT

[2] = molecular target: Receptor-type tyrosine-protein phosphatase F (Homo sapiens, UniProt P10586); assay: Compound was tested for selectivity against LAR
Sequence of Receptor-type tyrosine-protein phosphatase F (P10586 whole entry): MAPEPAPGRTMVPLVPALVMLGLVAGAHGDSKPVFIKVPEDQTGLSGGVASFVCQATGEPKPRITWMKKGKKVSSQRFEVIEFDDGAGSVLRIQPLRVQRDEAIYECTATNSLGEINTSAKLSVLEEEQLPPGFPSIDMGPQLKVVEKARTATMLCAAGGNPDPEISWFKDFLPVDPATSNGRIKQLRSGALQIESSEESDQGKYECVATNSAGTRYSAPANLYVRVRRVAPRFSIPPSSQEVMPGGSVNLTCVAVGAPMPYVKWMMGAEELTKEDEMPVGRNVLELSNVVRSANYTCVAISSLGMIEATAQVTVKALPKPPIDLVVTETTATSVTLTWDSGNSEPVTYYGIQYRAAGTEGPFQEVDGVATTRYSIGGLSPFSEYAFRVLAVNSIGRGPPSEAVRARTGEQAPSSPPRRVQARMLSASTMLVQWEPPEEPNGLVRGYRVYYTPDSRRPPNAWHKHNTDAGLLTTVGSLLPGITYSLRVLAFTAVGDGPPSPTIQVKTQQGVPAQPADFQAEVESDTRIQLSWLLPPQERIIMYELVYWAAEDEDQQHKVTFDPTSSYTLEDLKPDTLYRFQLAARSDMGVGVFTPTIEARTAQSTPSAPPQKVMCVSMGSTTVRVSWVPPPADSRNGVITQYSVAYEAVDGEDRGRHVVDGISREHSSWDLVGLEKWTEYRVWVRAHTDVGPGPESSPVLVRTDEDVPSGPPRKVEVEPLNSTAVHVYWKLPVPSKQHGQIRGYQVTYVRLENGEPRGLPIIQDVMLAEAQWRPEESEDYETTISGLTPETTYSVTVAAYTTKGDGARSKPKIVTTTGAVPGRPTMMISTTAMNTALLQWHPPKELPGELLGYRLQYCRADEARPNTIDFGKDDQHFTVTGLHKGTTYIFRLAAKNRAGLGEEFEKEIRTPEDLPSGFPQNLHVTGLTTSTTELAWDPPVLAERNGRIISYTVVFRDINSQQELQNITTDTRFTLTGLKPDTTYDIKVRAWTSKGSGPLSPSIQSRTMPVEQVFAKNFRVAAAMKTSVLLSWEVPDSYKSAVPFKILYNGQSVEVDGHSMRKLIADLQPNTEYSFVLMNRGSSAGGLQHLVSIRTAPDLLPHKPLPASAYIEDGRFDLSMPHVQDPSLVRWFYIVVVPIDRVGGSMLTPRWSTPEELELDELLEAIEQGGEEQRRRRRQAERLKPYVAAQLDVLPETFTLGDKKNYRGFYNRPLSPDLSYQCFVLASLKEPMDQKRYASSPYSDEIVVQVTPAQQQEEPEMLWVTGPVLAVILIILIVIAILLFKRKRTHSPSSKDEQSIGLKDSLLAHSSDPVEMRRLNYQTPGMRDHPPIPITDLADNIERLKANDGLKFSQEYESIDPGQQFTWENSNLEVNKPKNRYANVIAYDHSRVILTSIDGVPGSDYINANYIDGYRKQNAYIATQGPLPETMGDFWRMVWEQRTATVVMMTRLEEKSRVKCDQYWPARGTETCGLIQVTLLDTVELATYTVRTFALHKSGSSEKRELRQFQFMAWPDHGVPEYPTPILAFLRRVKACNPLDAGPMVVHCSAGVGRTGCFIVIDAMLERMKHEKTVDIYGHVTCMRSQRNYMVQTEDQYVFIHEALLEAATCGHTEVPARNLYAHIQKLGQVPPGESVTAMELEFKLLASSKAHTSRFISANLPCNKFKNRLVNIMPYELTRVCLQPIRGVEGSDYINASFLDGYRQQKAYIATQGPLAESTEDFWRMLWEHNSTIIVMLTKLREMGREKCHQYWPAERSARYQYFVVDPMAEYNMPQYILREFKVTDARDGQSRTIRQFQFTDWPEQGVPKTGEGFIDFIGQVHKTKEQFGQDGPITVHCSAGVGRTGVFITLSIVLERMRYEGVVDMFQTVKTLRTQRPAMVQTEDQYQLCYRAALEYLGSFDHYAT

[3] = molecular target: T2, Tyrosine-protein phosphatase non-receptor type 2 (Homo sapiens, UniProt P17706); assay: Compound was tested for selectivity against human T cell protein tyrosine phosphatase; type: cell-based
T2 sequence (P17706 whole entry): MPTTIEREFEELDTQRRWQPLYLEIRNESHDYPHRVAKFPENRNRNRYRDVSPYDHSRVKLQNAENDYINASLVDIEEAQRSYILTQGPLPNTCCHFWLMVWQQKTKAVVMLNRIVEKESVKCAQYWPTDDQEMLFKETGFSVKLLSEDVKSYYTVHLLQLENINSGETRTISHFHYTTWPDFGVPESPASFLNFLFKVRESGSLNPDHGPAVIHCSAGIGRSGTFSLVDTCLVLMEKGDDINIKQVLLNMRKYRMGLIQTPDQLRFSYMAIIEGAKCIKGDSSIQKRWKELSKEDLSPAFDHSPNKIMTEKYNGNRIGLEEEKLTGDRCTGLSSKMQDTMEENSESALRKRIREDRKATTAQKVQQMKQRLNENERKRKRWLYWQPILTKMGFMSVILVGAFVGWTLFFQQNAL

| SMILES | IC50 [1] [µM] | IC50 [2] [mM] | IC50 [3] [µM] |
| --- | --- | --- | --- |
| O=Cc1coc2ccc([N+](=O)[O-])cc2c1=O | 91 | – | – |
| O=C(O)c1coc2ccccc2c1=O | > 1000 | – | – |
| O=Cc1coc2ccccc2c1=O | 73 | – | – |
| Nc1oc2ccccc2c(=O)c1C=O | > 1000 | – | – |
| O=Cc1coc2ccc(F)cc2c1=O | 55 | – | – |
| O=C(O)c1cc(=O)c2ccccc2o1 [CHROMOCARB] | > 1000 | – | – |
| O=C(O)c1cc2ccccc2oc1=O [COUMARIN-3-CARBOXYLIC ACID] | > 1000 | – | – |

These reach a lower IC50 [1]. Values come first.

| IC50 [1] [µM] | IC50 [2] [mM] | IC50 [3] [µM] | SMILES |
| --- | --- | --- | --- |
| 22 | – | – | CC(C)c1ccc2occ(C=O)c(=O)c2c1 |
| 20 | – | – | O=Cc1coc2c(Br)cc(Br)cc2c1=O |
| 28 | – | – | O=Cc1coc2ccc(Cl)cc2c1=O |
| 25 | – | – | O=Cc1coc2c(Cl)cc(Cl)cc2c1=O |
| 20 | – | – | O=Cc1coc2ccc(Br)cc2c1=O |
| 25 | – | – | O=Cc1coc2c(ccc3ccccc32)c1=O |
| 14 | > 1 | 780 | O=Cc1coc2ccc3ccccc3c2c1=O |
| 4.3 | > 1 | 51 | O=Cc1coc2ccc(-c3ccc(-c4ccccc4)cc3)cc2c1=O |
| 18 | – | – | Cc1cc2occ(C=O)c(=O)c2cc1Cl |
| 14 | > 1 | 240 | O=Cc1coc2ccc(-c3ccccc3)cc2c1=O |
